Data: patent publication US20260297029A1, “ALKOXY AND CARBAMOYL QUATERNARY AMINE SALTS AS PRODRUGS OF TRYPTAMINES” (priority 2023, published 2026)
≈ marks a conversion by molar mass, not a printed value. Like-named read-outs stand apart in the source and are kept apart here.

Tests used:
[1] = physchem; format: physicochemical
Experimental: The half-life of the compounds was measured in PBS (pH 6.5), simulated gastric fluid (SGF) with pepsin, and SGF without pepsin.

[2] = system: serotonin receptors; conditions: cited from earlier work
[3] = physchem; format: physicochemical; conditions: FaSSIF, RT, 30 mM DMSO stock, value close to or above 300 μM may mean solubility at or above 300 μM
Experimental: Solubility measurements were taken according to the steps as followed:
2. Preparation of Stock Solution: The stock solution of test compounds was prepared in dimethyl sulfoxide (DMSO) at the concentration of 30 mM. The stock solution of control compound was prepared in DMSO at the concentration of 30 mM. Diclofenac sodium was used as positive control in the assay.
3. Procedures for Solubility Determination: 10 μL stock solution of each compound was placed in order into their proper 96-well rack, followed by adding 990 μL of FaSSIF into each vial of the cap-less Solubility Sample plate. This study was performed in duplicate. One stir stick was added to each vial and then vials were sealed using a molded PTDE/SIL 96-Well Plate Cover. The Solubility Sample plate was transferred to the Thermomixer Comfort plate shaker and incubated at RT for 2 hours with shaking at 1100 rpm. After 2 hours incubation, stir sticks were removed using a big magnet and all samples from the Solubility Sample plate were transferred into the filter plate. All the samples were filtered by using the Vacuum Manifold. An aliquot of 10 μL of the filtered samples were diluted with 980 μL of methanol and 10 μL of DMSO. The dilution factor might be changed according to the solubility value and the LC/MS signal response.
5. Sample Analysis: Samples were analyzed by LC-MS/MS.
[formula] • with DF as the dilution factor.

[4] = in vitro; format: in vitro ADME; conditions: for Remaining Percentage / remaining at 0.25 h / remaining at 0.5 h / remaining at 1 h / remaining at 2 h: mouse plasma; for Remaining Percentage: 0 min; for remaining at 0.25 h: 15 min; for remaining at 0.25 h / remaining at 0.5 h / remaining at 1 h / remaining at 2 h: read-out: Remaining Percentage; for remaining at 0.5 h: 30 min; for remaining at 1 h: 60 min; for remaining at 2 h: 120 min; for half-life: mouse, plasma
[5] = PBS (pH 6.5), 30 min, read-out: Remaining Percentage
[6] = PBS (pH 6.5), 60 min, read-out: Remaining Percentage
[7] = PBS (pH 6.5), 120 min, read-out: Remaining Percentage
[8] = PBS (pH 6.5), 240 min, read-out: Remaining Percentage
[9] = PBS (pH 6.5), SGF with pepsin, SGF without pepsin
[10] = SGF with pepsin, 30 min, read-out: Remaining Percentage
[11] = SGF with pepsin, 60 min, read-out: Remaining Percentage
[12] = SGF with pepsin, 120 min, read-out: Remaining Percentage
[13] = SGF with pepsin, 240 min, read-out: Remaining Percentage
[14] = SGF without pepsin, 30 min, read-out: Remaining Percentage
[15] = SGF without pepsin, 60 min, read-out: Remaining Percentage
[16] = SGF without pepsin, 120 min, read-out: Remaining Percentage
[17] = SGF without pepsin, 240 min, read-out: Remaining Percentage
[18] = SGF without pepsin, if calculated T1/2 < 0, reported as 9999 min, read-out: T1/2
[19] = only time points within the initial rate used where fast then slow disappearance, read-out: T1/2
[20] = text statement of Table 4 value, read-out: half-life in mouse plasma
[21] = SGF with pepsin, if calculated T1/2 < 0, reported as 9999 min, read-out: T1/2

| SMILES | activity at select serotonin receptors [2] | solubility kinetic at 2 h [3] | Remaining Percentage ([1]; SGF with pepsin, 0 min) | remaining at 0.5 h [1, 10] | remaining at 1 h [1, 11] | remaining at 2 h [1, 12] | remaining at 4 h [1, 13] | Remaining Percentage ([1]; SGF without pepsin, 0 min) | remaining at 0.5 h [1, 14] | remaining at 1 h [1, 15] | remaining at 2 h [1, 16] | remaining at 4 h [1, 17] | Remaining Percentage [4] | remaining at 0.25 h [4] | remaining at 0.5 h [4] | remaining at 1 h [4] | remaining at 2 h [4] | half-life [4, 19] | also measured |
| --- | --- | --- | --- | --- | --- | --- | --- | --- | --- | --- | --- | --- | --- | --- | --- | --- | --- | --- | --- |
| O=C(O)CCCc1ccc(N(CCCl)CCCl)cc1 [Chlorambucil, reference compound] |  |  |  |  |  |  |  |  |  |  |  |  |  |  |  |  |  |  | Remaining Percentage ([1]; pH 6.5): 100.00%; half-life ([1]; pbs, pH 6.5): 41.6 min; remaining at 0.5 h ([1]; pbs, pH 6.5): 59.4%; remaining at 1 h ([1]; pbs, pH 6.5): 37.1%; remaining at 2 h ([1]; pbs, pH 6.5): 13.6%; remaining at 4 h ([1]; pbs, pH 6.5): 1.83% |
| CN(C)CCc1c[nH]c2ccccc12 [DMT, N, N-dimethyltryptamine] | agonists or partial agonists |  |  |  |  |  |  |  |  |  |  |  |  |  |  |  |  |  |  |
| O=C(O)Cc1ccccc1Nc1c(Cl)cccc1Cl [Diclofenac, reference compound] |  | 276 µM (≈ 81.7 µg/mL) |  |  |  |  |  |  |  |  |  |  |  |  |  |  |  |  |  |
| CN(C)C(=O)OC[N+](C)(C)CCc1c[nH]c2ccccc12 [Compound 1, N-(((dimethylcarbamoyl)oxy)methyl)-2-(1H-indol-3-yl)-N,N-dimethylethan-1-aminium] |  | 290 µM | 100.00% | 101% | 100% | 97.2% | 108% | 100.00% | 105% | 100% | 104% | 100% | 100.00% | 97.5% | 92.6% | 90.2% | 58.3% | 156 min | Remaining Percentage ([1]; PBS (pH 6.5), 0 min): 100.00%; remaining at 0.5 h [1, 5]: 97.7%; remaining at 1 h [1, 6]: 108%; remaining at 2 h [1, 7]: 107%; remaining at 4 h [1, 8]: 108%; Stability in the environment of a stomach and in the presence of pepsin [1, 9]: does not degrade in the environment of a stomach nor in the presence of pepsin; half-life [1, 18]: 15700 min; half-life [4, 20]: 155 min |
| CN(C)CCc1c[nH]c2cccc(O)c12 [psilocin, 4-hydroxy-DMT] | agonists or partial agonists |  |  |  |  |  |  |  |  |  |  |  |  |  |  |  |  |  |  |
| CN(C)CCc1c[nH]c2cccc(OP(=O)(O)O)c12 [psilocybin] | agonists or partial agonists |  |  |  |  |  |  |  |  |  |  |  |  |  |  |  |  |  |  |
| CC[C@H]1OC(=O)[C@H](C)[C@@H](O[C@H]2C[C@@](C)(OC)[C@@H](O)[C@H](C)O2)[C@H](C)[C@@H](O[C@@H]2O[C@H](C)C[C@H](N(C)C)[C@H]2O)[C@](C)(O)C[C@@H](C)C(=O)[C@H](C)[C@@H](O)[C@]1(C)O [Erythromycin, reference compound] |  |  | 100.00% | 52.6% | 30.5% | 9.74% | 1% | 100.00% | 54.5% | 29.1% | 9.44% | 1.05% |  |  |  |  |  |  | half-life [1, 21]: 36 min; half-life [1, 18]: 36.6 min |
| CC(C)(C)C(=O)OC[N+](C)(C)CCc1c[nH]c2ccccc12 [Compound 2, 2-(1H-indol-3-y1)-N,N-dimethy1-N-((pivaloyloxy)methyl)ethan-1-aminium] |  | 314 µM | 100.00% | 94.3% | 104% | 96.6% | 96.1% | 100.00% | 90.7% | 97.3% | 104% | 104% | 100.00% | 24.4% | 7.66% | 1.13% | 0% | 9.41 min | Remaining Percentage ([1]; PBS (pH 6.5), 0 min): 100.00%; remaining at 0.5 h [1, 5]: 97.4%; remaining at 1 h [1, 6]: 101%; remaining at 2 h [1, 7]: 98.3%; remaining at 4 h [1, 8]: 95.3%; Stability in the environment of a stomach and in the presence of pepsin [1, 9]: does not degrade in the environment of a stomach nor in the presence of pepsin; half-life ([1]; PBS (pH 6.5), if calculated T1/2 < 0, reported as 9999 min, read-out: T1/2): 3790 min; half-life [1, 21]: 5330 min; half-life [4, 20]: 9.4 min |
| COc1ccc2[nH]cc(CCN(C)C)c2c1 [Compound 5-MeO-DMT, 5-methoxy-DMT] |  |  |  |  |  |  |  |  |  |  |  |  |  |  |  |  |  |  | activity at select serotonin receptors ([2]; bind select serotonin receptors in the active state): agonists or partial agonists |
| CC(C)[N+](C)(CCOC(=O)C1c2ccccc2Oc2ccccc21)C(C)C [Propantheline, reference compound] |  |  |  |  |  |  |  |  |  |  |  |  | 100.00% | 86% | 67.2% | 35% | 8.48% | 32.8 min |  |
